{"source": "patent US20190054054A1", "about": "“Methods reducing or preventing oxidation of high density lipoprotein (HDL)” (Amarin Pharmaceuticals Ireland Limited, priority 2017, published 2019)", "key": {"[1]": {"test": "Glucose-induced membrane lipid peroxidation (LOOH, CHOD-iodide assay) in DLPC/cholesterol vesicles (Examples 4 and 5)", "type": "biochemical", "conditions": "for inhibition of the peroxidative effects of glucose (LOOH formation) / effect on LOOH formation / lipid peroxidation (FIG. 3): 1:30 drug-to-phospholipid mole ratio; for effect on LOOH formation / lipid peroxidation (FIG. 3): glucose, 72- and 96-hour time points", "experimental": "Vitamin E (α-tocopherol) was also purchased from Sigma-Aldrich and prepared in ethanol at 1.0 mM (e=[…] at 294 nm) just prior to experimental use. […] All test compounds were further diluted in ethanol or aqueous buffer as needed. Glucose was prepared in saline buffer (0.5 mM HEPES, 154 mM NaCl, pH 7.3) at 11.0 mM (200 mg/dL). CHOD-iodide color reagent (stock) was prepared, with slight modification, as described by from El-Saadani et al. (J. […] Samples were shell-dried under nitrogen gas and placed under vacuum for 1 h to remove residual solvent. […] Lipid suspensions were then vortexed for 3 min at ambient temperature to form MLVs. All MLV samples were subjected to time-dependent autoxidation by incubating at 37° C. in an uncovered, shaking water bath. This method allows lipid peroxidation to occur gradually without requiring the use of exogenous initiators. Small aliquots (5-100 μL) of each sample were removed, immediately following MLV preparation (0 hour) and after exposing samples to oxidative conditions for 72 or 96 hour, and combined with 1.0 mL of activated CHOD-iodide color reagent. Aliquot volume was reduced with each successive time point to ensure that spectrophotometric readings were within the optimal adsorption range. Test samples were covered and incubated in darkness at room temperature for at least 4 hr. Sample absorbances were then measured against a CHOD blank at 365 nm using a Beckman DU-640 spectrophotometer. The CHOD colorimetric assay is based on the oxidation of iodide (I^−) by lipid hydroperoxide (LOOH) to form triiodide (I3^−), the quantity of which is directly proportional to the amount of LOOH present in the lipid sample. The molar absorptivity (ε) of I3^− is 2.46×10^4 M^−1 cm^−1 at 365 nm. An experiment was conducted to compare the ability of EPA to prevent lipid hydroperoxide formation in model membranes treated with glucose to two other 20-carbon fatty acids: eicosanoic acid (“EA,” also referred to as arachidic acid, C20:0) and eicosatrienoic acid (“ETE,” C20:3, n-3). All MLV samples were subjected to time-dependent autoxidation by incubating at 37° C. in an uncovered, shaking water bath. This method allows lipid peroxidation to occur gradually without requiring the use of exogenous initiators. Small aliquots (5-100 μL) of each sample were removed, immediately following MLV preparation (0 hr) and after exposing samples to oxidative conditions for 72 or 96 hr, and combined with 1.0 mL of activated CHOD-iodide color reagent. Aliquot volume was reduced with each successive time point to ensure that spectrophotometric readings were within the optimal adsorption range. Test samples were covered and incubated in darkness at room temperature for at least 4 hr. Sample absorbances were then measured against a CHOD blank at 365 nm using a Beckman DU-640 spectrophotometer. The CHOD colorimetric assay is based on the oxidation of iodide (I^−) by lipid hydroperoxide (LOOH) to form triiodide (I3^−), the quantity of which is directly proportional to the amount of LOOH present in the lipid sample. The molar absorptivity (ε) of I3^− is 2.46×10^4 M^−1 cm^−1 at 365 nm."}, "human sdLDL": {"system": "human sdLDL", "test": "Copper-induced sdLDL oxidation, TBARS after 2 hr (Example 6)", "type": "biochemical", "conditions": "for reduction of TBARS levels compared to vehicle-treated controls: 10 μM CuSO4", "experimental": "An experiment to study the antioxidant effect of EPA in small dense […] performed. […] Vitamin E (α-tocopherol) was purchased from Sigma-Aldrich and prepared in ethanol at 1.0 mM (E=[…] cm^-1 at 294 nm) just prior to experimental use. All test compounds were further diluted in ethanol or aqueous buffer as needed. Venous blood was collected from healthy volunteers into vacutainer tubes containing sodium EDTA. Plasma was separated by centrifugation at 3000 g for 25 min at 4° C. and adjusted to a density of 1.020 g/mL with KBr. Triglyceride-rich lipoproteins (TGRL) and LDL fractions were then isolated by sequential centrifugation at 70,000 rpm at 4° C. in a Beckman LE-80 ultracentrifuge using a Beckman 50.4Ti rotor (Beckman Coulter, Inc., Fullerton, Calif.). The TGRL fraction (with a relative density of <1.020) was aspirated from the top of the centrifugate and discarded, leaving an LDL-enriched […] relative density of 1.020 to 1.063). […] The sdLDL subfraction was retained for additional experimentation. Plasma and lipoprotein fractions were maintained at 4° C. and protected from excessive exposure to light. Prior to oxidation experiments, EDTA was removed from the lipoprotein fraction using PD-10 desalting columns (GE Healthcare, Piscataway N.J.). After equilibration of the column with phosphate buffered saline (PBS), 2.5 mL of the lipoprotein fraction was loaded on the column and the flow-through discarded. The lipoprotein was then eluted with 3 mL of PBS. […] Data are presented as mean+S.D. for (N) separate samples or treatment groups. Differences between groups were analyzed using the two-tailed, Student's t-test (for comparisons between only two groups) or ANOVA followed by Dunnett or Student-Newman-Keuls multiple comparisons post-hoc analysis (for comparisons between three or more groups)."}}}
{"smiles": "CC/C=C\\C/C=C\\C/C=C\\C/C=C\\C/C=C\\CCCC(=O)O", "note": "[EPA, cis-5,8,11,14,17-eicosapentaenoic acid]", "values": [{"measurement": "inhibition of the peroxidative effects of glucose (LOOH formation)", "setting": "[1]; glucose 200 mg/dL, 72 hours", "result": 88, "unit": "%"}, {"measurement": "inhibition of the peroxidative effects of glucose (LOOH formation)", "setting": "[1]; glucose 200 mg/dL, 96 hours", "result": 86, "unit": "%"}, {"measurement": "effect on LOOH formation / lipid peroxidation (FIG. 3)", "setting": "[1]", "result": "significantly inhibited LOOH formation"}, {"measurement": "membrane LOOH formation, dose dependence", "setting": "[1]; EPA at 1.0 and 5.0 μM, glucose-treated", "result": "inhibit membrane LOOH formation in a dose-dependent manner"}, {"measurement": "LOOH formation compared to vehicle only, glucose only, glucose and EA, or glucose and ETE", "setting": "[1]; Example 5, 72 and 96 hr", "result": "significantly less LOOH formation"}, {"measurement": "antioxidant effect, separate treatments", "setting": "[1]; each at 1.0 μM, glucose 200 mg/dL, 96 hours", "result": "separate and potent antioxidant effects"}, {"measurement": "reduction of TBARS levels compared to vehicle-treated controls", "setting": "human sdLDL; 1.0 μM", "result": 13, "unit": "%"}, {"measurement": "reduction of TBARS levels compared to vehicle-treated controls", "setting": "human sdLDL; 10.0 μM", "result": 57, "unit": "%"}]}
{"smiles": "Cc1c(C)c2c(c(C)c1O)CC[C@@](C)(CCC[C@H](C)CCC[C@H](C)CCCC(C)C)O2", "note": "[vitamin E, α-tocopherol]", "values": [{"measurement": "effect on LOOH formation / lipid peroxidation (FIG. 3)", "setting": "[1]", "result": "no significant effect on lipid peroxidation"}, {"measurement": "effect on sdLDL oxidation over the concentration range", "setting": "human sdLDL; 1.0 μM to 10.0 μM", "result": "did not inhibit sdLDL oxidation except at the highest concentration"}, {"measurement": "reduction of TBARS levels compared to vehicle-treated controls", "setting": "human sdLDL; 10.0 μM", "result": 26, "unit": "%"}]}
